Measured values published in patent publication US11986529B2, “Pharmaceutical compositions and related methods of delivery” (priority 2008, dated 2024).
Like-named read-outs stand apart in the source and are kept apart here.

Key:
[1] = rat, in vivo
Procedure: Rats were anesthetized and were administered 100 μL of bulk drug formulation containing an insulin dose of 328 μg/rat (9 IU/rat). Blood samples were collected at 0, 3, 6, 10, 15, 25, 30, 40, 60 and 90 minutes post administration and serum was prepared for determination of human insulin by an immunoassay kit with no cross reactivity between rat and human insulin.
Rats were anesthetized and administered 100 μL of test article (insulin in formulation or insulin in PBS) containing an insulin dose of 328 μg/rat (9 IU/rat). Blood samples were collected at 0, 3, 6, 10, 15, 25, 30, 40, 60 and 90 minutes post administration. Glucose level was immediately determined with a glucometer and serum was prepared for determination of human insulin by an immunoassay kit with no cross reactivity between rat and human insulin.
Blood samples were collected at 0, 3, 6, 10, 15, 25, 30, 40, 60 and 90 minutes post rectal administration and at 0, 15, 30, 45, 60, 90 min, 2, 3, and 4 hours post SC administration. Glucose was immediately determined with a glucometer and insulin by an immunoassay kit. Glucose levels are presented as the percentage form basal levels measured before administration (time 0).
The levels of insulin absorption from rat colon after insulin in formulation administration were compared to the levels of insulin absorbed after SC administration. […]

[2] = Capsule administration to small intestine of non-anesthetized pigs (Nipple Valve gastric bypass); conditions: pig, in vivo; read-out: level of bioavailability in pigs, extrapolated from rat results
Text: In order to test the activity of the formulations of the invention when administrated in capsules, an animal model allowing capsule administration to pigs (domestic swine) was established. In order to bypass the stomach and allow direct administration of capsules to the small intestine of the pig, a well established model in dogs (“Nipple Valve model”; Wilsson-Rahmberg & O. Jonsson, Laboratory Animals (1997), 31, 231-240) was adapted to the commercial pig.
The two octreotide formulations shown below in Table 37 were prepared. The octreotide (x) formulation was prepared essentially as described above for the basic formulation wherein the hydrophilic fraction has been simplified to omit MgCl2 and MC400. […] The capsules were not enteric-coated i.e. they were uncoated.
The formulations described above in Table 37 were administered directly to the small intestine of the non-anesthetized pigs via the gastric bypass described above, and plasma octreotide levels were measured post-administration. Exposure values, AUC were determined for the formulations. The % BA was calculated compared to the exposure to octreotide after subcutaneous administration.

[3] = Intra-jejunal administration to non-anesthetized cannulated rats: plasma cargo levels, AUC, bioavailability; conditions: rat
Procedure: (§1) Rats are allowed to recover for 4 days before the study and are deprived of food for 18 hours before the start of the study.
(§2) Levels of plasma dextran following administration of dextran in formulation or in saline were compared to the levels of plasma dextran after intravenous administration. Exposure values, AUC (0-90), were determined for jejunal and intravenous administration and the absolute bioavailability (aBA) was calculated according to the following equation: aBA=(jejunal AUC(0-90))/(iv AUC(0-90))*(iv dose/jejunal dose). Data are presented as Mean±SD (n≥5 rats per group).
(§3) The levels of dextran absorption from rat jejunum after administration of dextran in formulation were compared to the levels of dextran absorbed after intravenous administration. Exposure values, AUC (0-90), were determined for jejunal and intravenous administration and the absolute bioavailability (aBA) determined according to the following equation: aBA=(jejunal AUC(0-90))/(iv AUC(0-90))*(iv dose/jejunal dose). Data are presented as Mean±SD (n≥5 rats per group).
(§4) The levels of dextran absorption from rat jejunum after administration of dextran in formulation were compared to the levels of dextran absorbed after intravenous administration. Exposure values, AUC (0-90), were determined for jejunal and intravenous administration and the absolute Bioavailability (aBA) was determined according to the following equation: aBA=(jejunal AUC(0-90))/(iv AUC(0-90))*(iv dose/jejunal dose). Data are presented as Mean±SD (n≥5 rats per group).

[4] = rat, in vivo; remark: listed apart in the source
Procedure: as §1, §2, §3, §4

[5] = rat, in vivo; remark: listed apart in the source
Text: Enteric-coated capsules for rats are not available and therefore stomach bypass enabling direct intra-jejunal administration is needed.
A specialized rat model in which three different cannulas are surgically implanted in anesthetized rats was developed: 1. Jejunal cannula—stomach bypass, enables insulin formulation administration, 2. Portal vein cannula—blood sampling prior to the liver, determine insulin that cross the GI wall into the blood, and 3. Jugular vein cannula—to determine the systemic levels of insulin.
Rats (8 rats per group) were anesthetized and their jejunum exposed by abdominal surgery. The jejunum containing intestinal loop was placed on gauze and kept moist and fully intact throughout the entire study. A temporary cannula was inserted into the jejunum and formulated insulin was administered. Blood was collected from both portal and jugular veins at the same time points, with approximately 4 time points per rat. The MEAN±SD value of each time point was used to create a plasma concentration vs. time curve. AUC was determined and rBA was calculated.

blood glucose = experiment: Blood glucose after rectal administration of insulin to rats; assay type: in vivo; conditions: rat, insulin 328 μg/rat
Text: The data of FIG. 3 is presented as MEAN±SD, n=5.

Compound: hGH in PBS: human growth hormone in PBS, control
- penetration to the bloodstream [1]: no penetration to the bloodstream

Compound: C[C@@H](O)[C@@H]1NC(=O)[C@H](CCCCN)NC(=O)[C@@H](Cc2c[nH]c3ccccc23)NC(=O)[C@H](Cc2ccccc2)NC(=O)[C@@H](NC(=O)[C@H](N)Cc2ccccc2)CSSC[C@@H](C(=O)N[C@H](CO)[C@@H](C)O)NC1=O [octreotide]
- bioavailability [2]: ~0.1%

Compound: CN[C@H](CC(C)C)C(=O)N[C@H]1C(=O)N[C@@H](CC(N)=O)C(=O)N[C@H]2C(=O)N[C@H]3C(=O)N[C@H](C(=O)N[C@H](C(=O)O)c4cc(O)cc(O)c4-c4cc3ccc4O)[C@H](O)c3ccc(c(Cl)c3)Oc3cc2cc(c3O[C@@H]2O[C@H](CO)[C@@H](O)[C@H](O)[C@H]2O[C@H]2C[C@](C)(N)[C@H](O)[C@H](C)O2)Oc2ccc(cc2Cl)[C@H]1O [vancomycin in saline solution, vancomycin]
- bioavailability / penetration to the bloodstream [3]: no BA was detected

Compound: CC[C@H](C)[C@H](NC(=O)[C@H](CCC(=O)O)NC(=O)[C@H](CO)NC(=O)[C@@H](NC(=O)[C@@H](N)CO)C(C)C)C(=O)N[C@@H](CCC(N)=O)C(=O)N[C@@H](CC(C)C)C(=O)N[C@@H](CCSC)C(=O)N[C@@H](Cc1cnc[nH]1)C(=O)N[C@@H](CC(N)=O)C(=O)N[C@@H](CC(C)C)C(=O)NCC(=O)N[C@@H](CCCCN)C(=O)N[C@@H](Cc1cnc[nH]1)C(=O)N[C@@H](CC(C)C)C(=O)N[C@@H](CC(N)=O)C(=O)N[C@@H](CO)C(=O)N[C@@H](CCSC)C(=O)N[C@@H](CCC(=O)O)C(=O)N[C@@H](CCCN=C(N)N)C(=O)N[C@H](C(=O)N[C@@H](CCC(=O)O)C(=O)N[C@@H](Cc1c[nH]c2ccccc12)C(=O)N[C@@H](CC(C)C)C(=O)N[C@@H](CCCN=C(N)N)C(=O)N[C@@H](CCCCN)C(=O)N[C@@H](CCCCN)C(=O)N[C@@H](CC(C)C)C(=O)N[C@@H](CCC(N)=O)C(=O)N[C@@H](CC(=O)O)C(=O)N[C@H](C(=O)N[C@@H](Cc1cnc[nH]1)C(=O)N[C@@H](CC(N)=O)C(=O)N[C@@H](Cc1ccccc1)C(=O)O)C(C)C)C(C)C [teriparatide in saline, teriparatide]
- bioavailability / penetration to the bloodstream [4]: no penetration to the bloodstream

Compound: insulin control: unformulated insulin control given intra-jejunally
- insulin absorbance [5]: minimal insulin absorbance

Compound: insulin in PBS: human insulin solubilized in PBS
- glucose reduction (blood glucose): only a very slight glucose reduction

Compound: CCNC(=O)[C@@H]1CCCN1C(=O)[C@H](CCCNC(=N)N)NC(=O)[C@H](CC(C)C)NC(=O)[C@@H](CC(C)C)NC(=O)[C@H](Cc1ccc(O)cc1)NC(=O)[C@H](CO)NC(=O)[C@H](Cc1c[nH]c2ccccc12)NC(=O)[C@H](Cc1c[nH]cn1)NC(=O)[C@@H]1CCC(=O)N1 [leuprolide in PBS, leuprolide]
- bioavailability / penetration to the bloodstream [4]: negligible penetration to the bloodstream
